Measurements: patent US6472348B1, “Pyridone derivatives and herbicides” (Kumiai Chemical Industry Co., Ltd., priority 1996, dated 2002)

Columns and labels:
[1] = tested on: monochoria (Mo); assay: Test Example 1: herbicidal effects by paddy field soil treatment; type: in vivo; conditions: 100 g of the active ingredient per 10 ares, 21st day after the application, index 0-5 of Table 47;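 further: grade of growth control; 5 = at least 90%; 4 = 70 to 90%; 3 = 50 to 70%; 2 = 30 to 50%; 1 = 10 to 30%; 0 = under 10%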
How it was run: (§1)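 Herbicidal effect was scored against a graded standard 21 days after treatment. Seeds were sown in puddled, leveled paddy soil flooded to 3 cm depth, and the active ingredient was applied at 100 g per 10 ares before greenhouse culture.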

[2] = tested on: bulrush (Sc); assay: as above; type: in vivo; conditions: 100 g of the active ingredient per 10 ares, 21st day after the application, index 0-5 of Table 47;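 further: grade of growth control; 5 = at least 90%; 4 = 70 to 90%; 3 = 50 to 70%; 2 = 30 to 50%; 1 = 10 to 30%; 0 = under 10%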
How it was run: as §1

[3] = tested on: barnyardgrass (Ec); assay: as above; type: in vivo; conditions: 100 g of the active ingredient per 10 ares, 21st day after the application, index 0-5 of Table 47
How it was run: as §1

[4] = tested on: Diaitaria ciliaris (Di); assay: Test Example 3: herbicidal effects by upland field foliage treatment; type: in vivo; design: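 grade of growth control; 5 = at least 90%; 4 = 70 to 90%; 3 = 50 to 70%; 2 = 30 to 50%; 1 = 10 to 30%; 0 = under 10%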; conditions: 100 g of the active ingredient per 10 ares, evaluated on the 14th day after treatment
How it was run: (§2)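 Weeds were sown in sand-filled pots (surface area: 120 cm^2), covered with soil and grown in a greenhouse for 2 weeks before foliar treatment. Plants then stayed in the greenhouse, and herbicidal effect was scored against graded standards on the 14th day after treatment.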

[5] = tested on: slender amaranth (Am); assay: as above; type: in vivo; design: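 grade of growth control; 5 = at least 90%; 4 = 70 to 90%; 3 = 50 to 70%; 2 = 30 to 50%; 1 = 10 to 30%; 0 = under 10%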; conditions: 100 g of the active ingredient per 10 ares, evaluated on the 14th day after treatment
How it was run: as §2

[6] = tested on: pale smartweed (Po); assay: as above; type: in vivo; design: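 grade of growth control; 5 = at least 90%; 4 = 70 to 90%; 3 = 50 to 70%; 2 = 30 to 50%; 1 = 10 to 30%; 0 = under 10%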; conditions: 100 g of the active ingredient per 10 ares, evaluated on the 14th day after treatment
How it was run: as §2

[7] = tested on: common lambsquarters (Ch); assay: as above; type: in vivo; design: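 grade of growth control; 5 = at least 90%; 4 = 70 to 90%; 3 = 50 to 70%; 2 = 30 to 50%; 1 = 10 to 30%; 0 = under 10%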; conditions: 100 g of the active ingredient per 10 ares, evaluated on the 14th day after treatment
How it was run: as §2

[8] = tested on: rice flatsedge (Ci); assay: as above; type: in vivo; design: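 grade of growth control; 5 = at least 90%; 4 = 70 to 90%; 3 = 50 to 70%; 2 = 30 to 50%; 1 = 10 to 30%; 0 = under 10%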; conditions: 100 g of the active ingredient per 10 ares, evaluated on the 14th day after treatment
How it was run: as §2

[9] = tested on: barnyardgrass (Ec); assay: as above; type: in vivo; design: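 grade of growth control; 5 = at least 90%; 4 = 70 to 90%; 3 = 50 to 70%; 2 = 30 to 50%; 1 = 10 to 30%; 0 = under 10%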; conditions: 100 g of the active ingredient per 10 ares, evaluated on the 14th day after treatment
How it was run: as §2

SMILES	melting point	further results
Cn1c(C(F)(F)F)ccc(-c2cc(N)c(Cl)cc2F)c1=O [Compound No. 1-59, 3-(5-amino-4-chloro-2-fluorophenyl)-1-methyl-6-trifluoromethyl-2(1H)-pyridone]	155 to 157 °C	–
CC(=O)Sc1cc(-c2ccc(C(F)(F)F)n(C)c2=O)c(F)cc1Cl [Compound No. 1-85, 3-(5-acetylthio-4-chloro-2-fluorophenyl)-1-methyl-6-trifluoromethyl-2(1H)-pyridone]	91 to 92 °C	–
Cn1c(C(F)(F)F)ccc(-c2cc([N+](=O)[O-])c(Cl)cc2F)c1=O [Compound No. 1-58, 3-(4-chloro-2-fluoro-5-nitrophenyl)-1-methyl-6-trifluoromethyl-2(1H)-pyridone]	139 to 140 °C	Herbicidal effects Mo [1]: 5; Herbicidal effects Sc [2]: 5; Herbicidal effects Ec [3]: 5
Cn1c(C(F)(F)F)ccc(-c2cc(S(=O)(=O)Cl)c(Cl)cc2F)c1=O [Compound No. 1-84, 3-(4-chloro-5-chlorosulfonyl-2-fluorophenyl)-1-methyl-6-trifluoromethyl-2(1H)-pyridone]	77 to 78 °C	Herbicidal effects Di [4]: 5; Herbicidal effects Am [5]: 5; Herbicidal effects Po [6]: 5; Herbicidal effects Ch [7]: 5; Herbicidal effects Ci [8]: 5; Herbicidal effects Ec [9]: 5
Cn1c(C(F)(F)F)cc(Cl)c(-c2ccc(Cl)c(NS(C)(=O)=O)c2)c1=O [Compound No. 11-3, 3-(4-chloro-3-methylsulfonylaminophenyl)-4-chloro-1-methyl-6-trifluoromethyl-2(1H)-pyridone]	161 to 163 °C	–
Cn1cc(-c2ccc(Cl)cc2Cl)c(=O)cc1C(F)(F)F [Compound No. 6-3, 5-(2,4-dichlorophenyl)-1-methyl-2-trifluoromethyl-4(1H)-pyridone]	205 to 206 °C	–
Cn1c(C(F)(F)F)ccc(-c2c(Cl)cc(Cl)c3oc(C(Br)(Br)Br)cc23)c1=O [4-40, 3-(5,7-dichloro-2-tribromomethylbenzofuran-4-yl)-1-methyl-6-trifluoromethyl-2-(1H)-pyridone]	225 to 227 °C	–
Cn1c(C(F)(F)F)ccc(-c2cc3[nH]c(=O)oc3cc2Cl)c1=O [Compound No. 3-20, 3-(6-chlorobenzoxazolin-2-on-5-yl)-1-methyl-6-trifluoromethyl-2(1H)-pyridone]	263 to 265 °C	–
CCC(c1cc2c(-c3ccc(C(F)(F)F)n(C)c3=O)c(F)cc(Cl)c2o1)[S+](C)[O-] (centres unmarked) [Compound No. 4-57, 3-[7-chloro-5-fluoro-2-(1-methylsulfinylpropyl)benzofuran-4-yl]-1-methyl-6-trifluoromethyl-2-(1H)-pyridone]	125 to 127 °C	–
Cn1c(C(F)(F)F)ccc(-c2cc([N+](=O)[O-])c(F)cc2F)c1=O [Compound No. 1-100, 3-(2,4-difluoro-5-nitrophenyl)-1-methyl-6-trifluoromethyl-2(1H)-pyridone]	115 to 118 °C	–
CCOC(=O)c1c(C(F)(F)F)n(C)cc(-c2cc(OC(C)C)c(Cl)cc2F)c1=O [Compound No. 6-42, 5-(4-chloro-2-fluoro-5-isopropoxyphenyl)-3-ethoxycarbonyl-1-methyl-2-trifluoromethyl-4(1H)-pyridone]	170 to 172 °C	–
